The values that follow come from US11485742B2, “2-azaspiro[3.4]octane derivatives as M4 agonists” (NOVARTIS AG, priority 2019, dated 2022).

Assay [1] deals with T1, human cloned CHRM3 receptor (Homo sapiens, UniProt P20309).
T1 construct: expressed in transfected cells; host or cells: CHO-K1 (M3_CHO)
The experiment in a line: CHRM3 Ca++ Flux Assay (M3_CHO cells, agonist mode). It counts as cell-based. The settings on record: for Emax / M3 FDSS PA %: Percent Activity (PA) measured to EC100 of Carbachol; for Emax: read-out: M3 FDSS PA %; for EC50: agonist mode, geometric mean if tested more than once, read-out: M3 FDSS EC50. The method in brief:
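CHO-K1 cells stably expressing human M3 or M5 receptor, dye-loaded ≥1 h, treated with 11-point compound doses in triplicate; Ca++ flux read over 3 min (FDSS). Agonist-mode four-parameter fit; percent activity relative to carbachol EC100; repeat tests reported as geometric mean.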

Assay [2] has as its target T2, human cloned CHRM4 receptor (Homo sapiens, UniProt P08173).
T2 construct: expressed in transfected cells; host or cells: CHO-K1 (M4_CHO)
T2 sequence (P08173 1-479): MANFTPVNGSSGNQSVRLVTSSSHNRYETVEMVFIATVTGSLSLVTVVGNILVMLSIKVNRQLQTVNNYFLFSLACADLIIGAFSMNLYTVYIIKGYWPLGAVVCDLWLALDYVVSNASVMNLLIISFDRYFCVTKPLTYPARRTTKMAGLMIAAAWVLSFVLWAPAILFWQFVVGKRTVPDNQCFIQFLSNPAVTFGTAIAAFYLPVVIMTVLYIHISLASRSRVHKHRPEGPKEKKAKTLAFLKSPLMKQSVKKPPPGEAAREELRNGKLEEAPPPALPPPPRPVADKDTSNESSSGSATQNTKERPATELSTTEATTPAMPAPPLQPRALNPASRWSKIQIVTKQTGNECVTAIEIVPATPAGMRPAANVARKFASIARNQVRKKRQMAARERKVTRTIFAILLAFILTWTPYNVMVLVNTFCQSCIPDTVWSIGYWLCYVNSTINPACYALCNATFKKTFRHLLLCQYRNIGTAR
Kind of assay: CHRM4 Ca++ Flux Assay (M4_CHO cells, agonist mode). It counts as cell-based. The conditions noted are these: for Emax / M4 FDSS PA %: Percent Activity (PA); for Emax: read-out: M4 FDSS PA %; for EC50: geometric mean if tested more than once, read-out: M4 FDSS EC50. The method in brief: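 CHO-K1 cells stably expressing human M4 were dye-loaded, then held 60 min at RT in Ca/Mg-free HBSS buffer with 20 μM ATP. Ca++ traces were recorded over 3 min after an 11-point compound series in triplicate, agonist mode, with a four-parameter fit. Percent activity is relative to the carbachol EC100; repeat tests are geometric means.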

T1 sequence (P20309 whole entry): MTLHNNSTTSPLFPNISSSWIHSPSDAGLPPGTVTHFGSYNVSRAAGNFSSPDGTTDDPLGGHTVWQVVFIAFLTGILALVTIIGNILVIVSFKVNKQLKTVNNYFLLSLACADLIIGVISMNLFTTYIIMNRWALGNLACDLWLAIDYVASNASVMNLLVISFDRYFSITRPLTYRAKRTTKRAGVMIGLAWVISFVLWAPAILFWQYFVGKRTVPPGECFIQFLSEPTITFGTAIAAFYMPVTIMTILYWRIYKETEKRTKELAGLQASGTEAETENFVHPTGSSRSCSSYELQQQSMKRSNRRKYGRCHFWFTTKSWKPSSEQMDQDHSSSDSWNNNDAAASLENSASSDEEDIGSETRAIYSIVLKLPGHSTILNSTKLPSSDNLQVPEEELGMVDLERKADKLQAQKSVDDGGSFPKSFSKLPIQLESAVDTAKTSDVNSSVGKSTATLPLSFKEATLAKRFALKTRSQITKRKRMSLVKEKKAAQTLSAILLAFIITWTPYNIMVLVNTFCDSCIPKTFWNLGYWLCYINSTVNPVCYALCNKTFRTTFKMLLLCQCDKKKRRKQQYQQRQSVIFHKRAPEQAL

Take `Fc1ccc(OC2COC2)c(C2CCN([C@@H]3COC4(C3)CN(c3nncs3)C4)CC2)c1` [Example 5G, (S)-7-(4-(5-fluoro-2-(oxetan-3-yloxy)phenyl)piperidin-1-yl)-2-(1,3,4-thiadiazol-2-yl)-5-oxa-2-azaspiro[3.4]octane]: the figures for the Emax in assay [1] and in assay [2] were 0% and 76%, respectively. Besides, the EC50 in assay [1] is over 25000 nM; in assay [2], 13 nM.
For `Fc1cc(OC2COC2)c(C2CCN([C@@H]3COC4(C3)CN(c3ncco3)C4)CC2)cc1F` [Example 4Q, (S)-7-(4-(4,5-difluoro-2-(oxetan-3-yloxy)phenyl)piperidin-1-yl)-2-(oxazol-2-yl)-5-oxa-2-azaspiro[3.4]octane] the same measures were 0%, 60%, over 25000 nM and 11 nM.
As to `COc1ccccc1C1CCN([C@@H]2COC3(C2)CN(c2ncns2)C3)CC1` [Example 5B, (S)-7-(4-(2-methoxyphenyl)piperidin-1-yl)-2-(1,2,4-thiadiazol-5-yl)-5-oxa-2-azaspiro[3.4]octane], the Emax in assay [1] was 0%; in assay [2], 59%. The results for the half-maximal effective concentration (EC50) in assay [1] and in assay [2] were over 25000 nM and 87 nM, respectively.
The like results for `CC(C)(O)COc1ccc(F)cc1C1CCN([C@@H]2COC3(C2)CN(c2ncns2)C3)CC1` [Example 5C, (S)-1-(2-(1-(2-(1,2,4-thiadiazol-5-yl)-5-oxa-2-azaspiro[3.4]octan-7-yl)piperidin-4-yl)-4-fluorophenoxy)-2-methylpropan-2-ol] were, in that order, 0%, 66%, over 25000 nM and 110 nM.
As to `c1ccc([C@@H]2CCOC2)c(C2CCN([C@@H]3COC4(C3)CN(c3nnco3)C4)CC2)c1` (single isomer, unassigned) [Example 3B, (S)-2-(1,3,4-oxadiazol-2-yl)-7-(4-(2-((S)-tetrahydrofuran-3-yl)phenyl)piperidin-1-yl)-5-oxa-2-azaspiro[3.4]octane or (S)-2-(1,3,4-oxadiazol-2-yl)-7-(4-(2-((R)-tetrahydrofuran-3-yl)phenyl)piperidin-1-yl)-5-oxa-2-azaspiro[3.4]octane], in assay [1], the “M3 FDSS PA %” value is given as 0% and the concentration giving a half-maximal response (EC50) was over 25000 nM. In assay [2], the “M4 FDSS PA %” value is recorded as 86% and the EC50 is 69 nM.
As to `c1ccc(C2CCN([C@@H]3COC4(C3)CN(c3nnco3)C4)CC2)c(CC2CCOCC2)c1` [Example 3G, (S)-2-(1,3,4-oxadiazol-2-yl)-7-(4-(2-((tetrahydro-2H-pyran-4-yl)methyl)phenyl)piperidin-1-yl)-5-oxa-2-azaspiro[3.4]octane], the figures for the Emax in assay [1] and in assay [2] were 0% and 82%, respectively. In addition, the EC50 was over 25000 nM in assay [1] and 185 nM in assay [2].
For `COc1ccc(F)cc1C1CCN([C@@H]2COC3(C2)CN(c2ncco2)C3)CC1` [Example 4I, (S)-7-(4-(5-fluoro-2-methoxyphenyl)piperidin-1-yl)-2-(oxazol-2-yl)-5-oxa-2-azaspiro[3.4]octane] the same measures were 0%, 73%, over 25000 nM and 19 nM.
As to `c1ccc(C2CCN([C@@H]3COC4(C3)CN(c3ncco3)C4)CC2)c(C2CCOCC2)c1` [Example 4V, (S)-2-(oxazol-2-yl)-7-(4-(2-(tetrahydro-2H-pyran-4-yl)phenyl)piperidin-1-yl)-5-oxa-2-azaspiro[3.4]octane], in assay [1], the Emax worked out at 0% and the concentration giving a half-maximal response (EC50) is over 25000 nM. In assay [2], the Emax worked out at 82% and the EC50 is 46 nM.
The like results for `c1ccc(C2CCN([C@@H]3COC4(C3)CN(c3ncco3)C4)CC2)c(OC2CC3(COC3)C2)c1` [Example 4M, (S)-7-(4-(2-((2-oxaspiro[3.3]heptan-6-yl)oxy)phenyl)piperidin-1-yl)-2-(oxazol-2-yl)-5-oxa-2-azaspiro[3.4]octane] were, in that order, 0%, over 25000 nM, 82% and 86 nM.
Consider `Fc1ccc(C2CCOCC2)c(C2CCN([C@@H]3COC4(C3)CN(c3nnco3)C4)CC2)c1` [Example 3D, (S)-7-(4-(5-fluoro-2-(tetrahydro-2H-pyran-4-yl)phenyl)piperidin-1-yl)-2-(1,3,4-oxadiazol-2-yl)-5-oxa-2-azaspiro[3.4]octane], for which the Emax was 0% in assay [1] and 84% in assay [2]. The EC50 in assay [1] is over 25000 nM; in assay [2], 63 nM.
Consider `CC1(C)C[C@@H](Oc2ccc(F)cc2C2CCN([C@@H]3COC4(C3)CN(c3nnco3)C4)CC2)CO1` (single isomer, unassigned) [Example 2N, (S)-7-(4-(2-(((R)-5,5-dimethyltetrahydrofuran-3-yl)oxy)-5-fluorophenyl)piperidin-1-yl)-2-(1,3,4-oxadiazol-2-yl)-5-oxa-2-azaspiro[3.4]octane or (S)-7-(4-(2-(((S)-5,5-dimethyltetrahydrofuran-3-yl)oxy)-5-fluorophenyl)piperidin-1-yl)-2-(1,3,4-oxadiazol-2-yl)-5-oxa-2-azaspiro[3.4]octane], for which, in assay [1], the “M3 FDSS PA %” value was found to be 0% and the concentration for a half-maximal effect (EC50) was over 25000 nM. Also, in assay [2], the “M4 FDSS PA %” value was determined as 65% and the EC50 came to 289 nM.
With `CC(C)(C#N)COc1ccc(F)cc1C1CCN([C@@H]2COC3(C2)CN(c2nnco2)C3)CC1` [Example 1E, (S)-3-(2-(1-(2-(1,3,4-oxadiazol-2-yl)-5-oxa-2-azaspiro[3.4]octan-7-yl)piperidin-4-yl)-4-fluorophenoxy)-2,2-dimethylpropanenitrile], in assay [1], the Emax was determined as 0% and the 50% effective concentration (EC50) was over 25000 nM. For the same compound, in assay [2], the Emax was found to be 78% and the EC50 came out at 27 nM.
For `Fc1ccc(OC[C@@H]2CCOC2)c(C2CCN([C@@H]3COC4(C3)CN(c3nncs3)C4)CC2)c1` [Example 5I, (S)-7-(4-(5-fluoro-2-(((R)-tetrahydrofuran-3-yl)methoxy)phenyl)piperidin-1-yl)-2-(1,3,4-thiadiazol-2-yl)-5-oxa-2-azaspiro[3.4]octane] the same measures were 0%, over 25000 nM, 71% and 20 nM.
The like results for `COc1ccc(Cl)cc1C1CCN([C@@H]2COC3(C2)CN(c2ncns2)C3)CC1` [Example 5A, (S)-7-(4-(5-chloro-2-methoxyphenyl)piperidin-1-yl)-2-(1,2,4-thiadiazol-5-yl)-5-oxa-2-azaspiro[3.4]octane] were, in that order, 0%, over 25000 nM, 60% and 74 nM.

The EC50 is the concentration that produces a half-maximal response.
